Assay results: patent US20070105940A1, “Method for treating pain” (ALLERGAN, INC., priority 2005, published 2007)
Like-named read-outs stand apart in the source and are kept apart here.

Columns and labels:
[1] = tested on: fatty acid amide hydrolase (FAAH); experiment: FAAH inhibition in vitro; assay type: biochemical
Text: Similar results were obtained with other congeners, provided that at least one double bond was present in the acyl chain.

[2] = tested on: chronic constrictory injury (CCI) of the sciatic nerve; experiment: CCI neuropathic pain, mechanical allodynia (Dynamic Plantar Anaesthesiometer, paw withdrawal threshold); assay type: in vivo, rat; conditions: CCI rats, i.p. for 7 days; AA-5-HT 5 mg/kg, URB-597 3 mg/kg; FIG. 3
Description: (§1) Neuropathic pain was induced by chronic constrictory injury (CCI) of the sciatic nerve. Rats were anaesthetized with sodium pentobarbital (60 mg/kg i.p.), the right sciatic nerve was exposed and four ligatures were loosely tied around the nerve just proximal to the trifurcation. Control rats underwent a sham surgery with exposure of the sciatic nerve without ligature.
(§2) Changes in thermal and mechanical nociceptive responses have been evaluated using a Plantar Test Apparatus and Dynamic Plantar Anaesthesiometer (Ugo Basile, Varese, Italy). Thermal paw withdrawal latency and mechanical paw withdrawal threshold (PWL and PWT) were measured (in sec and grams, respectively) for each group of rats every 30 min for 3 h.

[3] = tested on: chronic constrictory injury (CCI) of the sciatic nerve; experiment: CCI neuropathic pain, thermal nociceptive response (Plantar Test, paw withdrawal latency); assay type: in vivo, rat; conditions: CCI rats, i.p. for 7 days; AA-5-HT 5 mg/kg, URB-597 3 mg/kg; FIG. 4
Description: as §1, §2

[4] = tested on: nociceptive response to formalin injected into the rat paw; experiment: Nociceptive response to formalin injected into the rat paw; assay type: in vivo
[5] = tested on: OFF cells of the rostral ventromedial medulla; experiment: Inhibitory effect of formalin on OFF cells of the rostral ventromedial medulla; assay type: in vivo, rat; conditions: FIG. 2B
anandamide levels = experiment: Anandamide levels in the periaqueductal grey after intra-PAG injection; assay type: in vivo; conditions: 4 μg/rat intra-PAG, measured 20 min following injection
TRPV1 channels [6] = target: T1, TRPV1 channels (Homo sapiens, UniProt Q8NER1); experiment: Blocking of TRPV1 channel activation by capsaicin; assay type: cell-based; conditions: capsaicin 100 nM; FIG. 1A; read-out: IC50 against capsaicin
T1 sequence (Q8NER1 whole entry): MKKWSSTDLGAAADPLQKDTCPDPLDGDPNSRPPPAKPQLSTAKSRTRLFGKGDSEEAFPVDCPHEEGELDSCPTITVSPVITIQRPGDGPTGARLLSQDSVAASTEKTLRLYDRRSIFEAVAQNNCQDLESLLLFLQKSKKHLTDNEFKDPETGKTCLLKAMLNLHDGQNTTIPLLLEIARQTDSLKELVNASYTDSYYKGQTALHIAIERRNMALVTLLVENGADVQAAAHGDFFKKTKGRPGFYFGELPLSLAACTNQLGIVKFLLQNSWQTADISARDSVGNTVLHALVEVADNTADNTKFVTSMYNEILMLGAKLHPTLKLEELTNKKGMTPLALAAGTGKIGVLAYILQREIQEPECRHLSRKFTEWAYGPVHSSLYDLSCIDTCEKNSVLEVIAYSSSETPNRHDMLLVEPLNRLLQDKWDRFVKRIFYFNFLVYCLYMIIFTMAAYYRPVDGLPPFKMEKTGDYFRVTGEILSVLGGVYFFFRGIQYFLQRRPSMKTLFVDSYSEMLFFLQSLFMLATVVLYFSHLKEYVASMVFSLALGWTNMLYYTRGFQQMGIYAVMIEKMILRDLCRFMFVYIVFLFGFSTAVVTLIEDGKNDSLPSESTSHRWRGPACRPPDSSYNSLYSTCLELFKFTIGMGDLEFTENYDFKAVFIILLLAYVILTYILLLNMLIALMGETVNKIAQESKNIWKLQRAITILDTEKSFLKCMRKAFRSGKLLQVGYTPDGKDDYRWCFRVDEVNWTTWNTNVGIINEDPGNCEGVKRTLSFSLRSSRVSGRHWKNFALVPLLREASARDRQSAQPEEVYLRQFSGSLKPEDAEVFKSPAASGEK

TRPV1 channels [7] = target: T1, TRPV1 channels; conditions: read-out: IC50 against capsaicin, previously reported; cited from earlier work

Row | SMILES | type of FAAH inhibition [1] | less potent than URB-597 at inhibiting FAAH ([1]; in vitro) [fold] | mechanical allodynia [2] | thermal nociceptive responses [3] | nociceptive response to formalin ([4]; 4 μg/rat injected into the periaqueductal grey (PAG), FIG. 2A) | nocifensive response to formalin ([4]; 1 mg/rat, s.c., injected into the paw) | inhibitory effect of formalin on the OFF cells of the rostral ventromedial medulla ([5]; supraspinal level) | anandamide levels in the PAG (anandamide levels) | IC50 (TRPV1 channels [6]) [nM] | IC50 (TRPV1 channels [7]) [nM] | effect on the anti-hyperalgesic effect of AA-5-HT ([4]; AA-5-HT 4 μg/rat intra-PAG, AM251 (nmol/rat), capsazepine 6 nmol/rat) | effect on the action of AA-5-HT injected into the paw ([4]; AA-5-HT 1 mg/rat s.c. into the paw) | effect on the action of AA-5-HT on OFF cells [5]
1 | CCCCC/C=C\C/C=C\C/C=C\C/C=C\CCCC(=O)NCCc1c[nH]c2ccc(O)cc12 [AA-5-HT, N-arachidonoyl-serotonin] | mixed inhibitors | 100 | totally abolished | as efficacious as URB-597 | potently inhibited both phases | selectively blocked the 2nd, inflammatory phase | blocking the inhibitory effect of formalin | elevated | 130 |  |  |  | 
2 | NC(=O)c1cccc(-c2cccc(OC(=O)NC3CCCCC3)c2)c1 [URB-597, reference compound] |  |  | ineffective | reducing thermal nociceptive responses |  |  |  |  |  |  |  |  | 
3 | Oc1cc2c(cc1O)CN(C(=S)NCCc1ccc(Cl)cc1)CCC2 [capsazepine, reference compound] |  |  |  |  |  |  |  |  |  | 60 | occluded | occluded | occluded
